The results in this text go back to paper PMC9026348, “Investigation of Direct and Retro Chromone-2-Carboxamides Based Analogs of Pseudomonas aeruginosa Quorum Sensing Signal as New Anti-Biofilm Agents” (Pharmaceuticals, 2022).

In data set [1] the test system is P. aeruginosa PAO1 biofilms. As to the kind of experiment: Anti-biofilm assay, CFU count of adherent cells. The class given is cell-based, Pseudomonas aeruginosa PAO1. The settings on record: PAO1, 48 h, relative to untreated control, mean ± SD of 3 independent experiments; for inhibition at 50 µM: Pseudomonas aeruginosa. The procedure:
The effect of all compounds was evaluated on PAO1 biofilms, grown in 24-well microplates. The antibiofilm assay used in this study is based on a low nutritive culture medium, a rather weak inoculum (10^2 CFU/mL), and a regular renewal of the culture medium (at 2, 4, 6, 20, and 24 h), in order to promote the growth of adhered cells as biofilm, instead of the growth and/or sedimentation of planktonic cells. Since the QS systems are involved in early steps of biofilm formation, compounds were added at t0. After incubation, viable cells were quantified by CFU plate counts.
The rather low concentration of 50 µM used was set up according to detected concentrations of QS molecules in CF patients’ lungs. […] For all compounds, MICs/MBCs were higher than 500 µM. To be considered active, a threshold of 50% inhibition, relative to the untreated control, was applied.
Pseudomonas aeruginosa PAO1 was obtained from the Institute Pasteur Collection (CIP 104116, Paris, France), frozen and kept at -80 °C in a 20% (v/v) glycerol stock solution. Before each experiment, two successive subcultures were prepared on trypticase soy agar and incubated for 24 h under aerobic conditions at 37 °C. Before each experiment, bacterial suspensions of 10^8 CFU/mL were prepared by adjusting OD at 640 nm to 0.150.
The bacterial enumerations were done on trypticase soy agar. The minimum biofilm broth used for biofilm formation (MBB) was prepared in sterile distilled water (SDW) and was composed of MgSO4·7H2O (0.02 g/L), FeSO4·7H2O (0.5 mg/L), Na2HPO4 (1.25 g/L), KH2PO4 (0.5 g/L), (NH4)2SO4 (0.1 g/L), and glucose (0.05 g/L) from Merck-Sigma (France).
The enumeration of adhered bacteria was carried-out according to Campanac et al. with some modifications. P. aeruginosa biofilms were grown in a 24-wells microtiter plate for 48 h. The culture medium was composed of BBM 2X (1.0 mL) and 1.0 mL of a 10^−4 M solution of tested compound dissolved in SDW (final concentration 50 µM). After inoculation with 100 µL of a 10^2 CFU/mL bacterial suspension of P. aeruginosa PAO1 (final inoculum 10 CFU/well), the microtiter plate was incubated à 37 °C. After 2 h, 4 h, 6 h, 20 h and 24 h of incubation, each well was emptied, rinsed twice with SDW, and the culture medium was renewed. After 48 h of culture, the biofilm was rinsed twice with 2.0 mL SDW. The bottom of each well was scraped with a sterile spatula and suspended in 1.0 mL of SDW. The content of each well was diluted by serial dilutions in test tubes. After inclusion of 0.9 mL of each dilution in trypticase soy agar, Petri dishes were incubated for 48 h at 37 °C. The number of colony forming units (CFUs) was counted and the inhibition percentage calculated using the following formula: Inhibition(%)=Adhered cellsControl(CFU/mL)−Adhered cellsSample(CFU/mL) /Adhered cellsControl×100

A value given as a limit tells only on which side of the number the result lay.

As a reminder, the inhibition is the drop in the measured response relative to a control, in per cent. A low value points to a response near the control. As a reminder, the melting point is the temperature of the solid-liquid transition. `O=C(Nc1ccc([N+](=O)[O-])cc1[N+](=O)[O-])c1cc(=O)c2ccccc2o1` [3n, N-(2,4-Dinitrophenyl)-4-oxo-4H-chromene-2-carboxamide] yielded a melting point of 330 °C. This compound also yielded an inhibition at 50 µM in data set [1] below 10%.
In the same order, the values of `CCc1cccc(NC(=O)c2cc(=O)c3ccccc3o2)c1` [3′a, N-(3-Ethylphenyl)-4-oxo-4H-chromene-2-carboxamide] are 168 °C and 70.5 ± 5.6%.
In turn, `COc1ccccc1C(=O)Nc1cc(=O)c2ccccc2o1` [6q, 2-Methoxy-N-(4-oxo-4H-chromen-2-yl) benzamide] registered a melting point of 260 °C. In addition, the inhibition at 50 µM in data set [1] was determined as 35.2 ± 6.8%.
For `O=C(Nc1cc(=O)c2ccccc2o1)c1ccccc1Br` [6j, 2-Bromo-N-(4-oxo-4H-chromen-2-yl) benzamide], the melting point lay in the range of 215 to 218 °C. Also, in data set [1], at 50 µM the inhibition was 36.1 ± 4.1%.
In the case of `O=C(Nc1ccc(F)c(Cl)c1)c1cc(=O)c2ccccc2o1` [3l, N-(3-Chloro-4-fluorophenyl)-4-oxo-4H-chromene-2-carboxamide], the melting point came out at 291 °C. In data set [1], this compound displayed an inhibition at 50 µM below 10%.
In turn, `Cc1ccc(C(=O)Nc2cc(=O)c3ccccc3o2)cc1` [6b, 4-Methyl-N-(4-oxo-4H-chromen-2-yl) benzamide] yielded a melting point of 240 °C. Also, in data set [1], the inhibition at 50 µM came out at 67 ± 3.6%.
The compound `CCc1ccc(C(=O)Nc2cc(=O)c3ccccc3o2)cc1` [6c, 4-Ethyl-N-(4-oxo-4H-chromen-2-yl) benzamide] displayed a melting point of 237 °C. The compound further gave an inhibition at 50 µM in data set [1] of 63.1 ± 3%.
As to `O=C(Nc1cc(=O)c2ccccc2o1)c1ccc(N2CCOCC2)cc1` [6u, 4-Morpholino-N-(4-oxo-4H-chromen-2-yl) benzamide], the melting point came to 287 °C. For the same compound, the inhibition at 50 µM in data set [1] was 56.8 ± 10%.
Compound `O=C(Nc1ccc(Br)cc1)c1cc(=O)c2ccccc2o1` [3g, N-(4-Bromophenyl)-4-oxo-4H-chromene-2-carboxamide] returned an inhibition at 50 µM in data set [1] of 47.2 ± 2.8%.
In turn, `O=C(Nc1ccc(Cn2ccnc2)cc1)c1cc(=O)c2ccccc2o1` [3′d, N-(4-((1H-Imidazol-1-yl)methyl)phenyl)-4-oxo-4H-chromene-2-carboxamide] displayed a melting point of 261 °C. The inhibition at 50 µM in data set [1] is below 10%.
For `COc1ccc(C(=O)Nc2cc(=O)c3ccccc3o2)cc1` [6p, 4-Methoxy-N-(4-oxo-4H-chromen-2-yl) benzamide], the melting point amounted to 227 °C. Besides, testing at 50 µM in data set [1] gave an inhibition of 39.3 ± 17.1%.
In turn, `O=C(Nc1ccc(F)cc1Cl)c1cc(=O)c2ccccc2o1` [3k, N-(2-Chloro-4-fluorophenyl)-4-oxo-4H-chromene-2-carboxamide] yielded a melting point of 229 °C. Moreover, the inhibition at 50 µM in data set [1] turned out to be 44.7 ± 9.4%.
With `O=C(Nc1ccccc1Br)c1cc(=O)c2ccccc2o1` [3j, N-(2-Bromophenyl)-4-oxo-4H-chromene-2-carboxamide], the melting point turned out to be 195 °C. The compound also came in with an inhibition at 50 µM in data set [1] of 46.1 ± 10.2%.
`CCCNC(=O)c1cc(=O)c2ccccc2o1` [3w, 4-Oxo-N-propyl-4H-chromene-2-carboxamide]: the melting point was found to be 166 °C. Besides, the inhibition at 50 µM in data set [1] is below 10%.
The like results for `O=C(Nc1cc(=O)c2ccccc2o1)c1ccc(F)cc1Cl` [6k, 2-Chloro-4-fluoro-N-(4-oxo-4H-chromen-2-yl) benzamide] were, in that order, 249 °C and 63.2 ± 9.3%.
Take `CCN(CC)CCCC(C)NC(=O)c1cc(=O)c2ccccc2o1` (stereo not drawn) [3′g, N-(5-(Diethylamino)pentan-2-yl)-4-oxo-4H-chromene-2-carboxamide]: the melting point is 110 °C. In data set [1], this compound returned an inhibition at 50 µM of 14.7 ± 2.1%.
The like results for `CCc1ccc(NC(=O)c2cc(=O)c3ccccc3o2)cc1` [3c, N-(4-Ethylphenyl)-4-oxo-4H-chromene-2-carboxamide] were, in that order, 179 °C and 43.3 ± 7.2%.
On to `O=C(CN1CCN(C(=O)c2cc(=O)c3ccccc3o2)CC1)N1CCCC1` [3′i, 2-(4-(2-Oxo-2-(pyrrolidin-1-yl)ethyl)piperazine-1-carbonyl)-4H-chromen-4-one], for which the melting point came out at 117 °C. The inhibition at 50 µM in data set [1] came out at 10.8 ± 0.4%.
The like results for `O=C(Nc1cc(=O)c2ccccc2o1)c1ccc(F)c(Cl)c1` [6l, 3-Chloro-4-fluoro-N-(4-oxo-4H-chromen-2-yl) benzamide] were, in that order, 224 °C and 67.2 ± 5.2%.
Turning to `CSc1ccccc1NC(=O)c1cc(=O)c2ccccc2o1` [3r, N-(2-(Methylthio)phenyl)-4-oxo-4H-chromene-2-carboxamide], the melting point stood at 163 °C. The same compound yielded an inhibition at 50 µM in data set [1] of 47.8 ± 5.7%.
For the compound `O=C(Nc1cc(=O)c2ccccc2o1)c1ccc(Br)cc1` [6g, 4-Bromo-N-(4-oxo-4H-chromen-2-yl) benzamide], the melting point came to 287 °C. In data set [1], this compound registered an inhibition at 50 µM of 56.2 ± 7.9%.
For the compound `CCCc1ccc(NC(=O)c2cc(=O)c3ccccc3o2)cc1` [3d, 4-Oxo-N-(4-propylphenyl)-4H-chromene-2-carboxamide], the melting point was 173 °C. At 50 µM the inhibition in data set [1] was 55.6 ± 18.3%.
`O=C(Nc1cc(=O)c2ccccc2o1)c1ccccc1` [6a, N-(4-Oxo-4H-chromen-2-yl) benzamide]: the melting point was determined as 218 °C. The inhibition at 50 µM in data set [1] was determined as 73.6 ± 6.1%.
On to `CCN(CC)Cc1cc(NC(=O)c2cc(=O)c3ccccc3o2)ccc1O` [3′c, N-(3-((Diethylamino)methyl)-4-hydroxyphenyl)-4-oxo-4H-chromene-2-carboxamide], for which the melting point is 186 °C. The compound also came in with an inhibition at 50 µM in data set [1] of 39.7 ± 4.5%.
Take `O=C(Nc1ccccc1F)c1cc(=O)c2ccccc2o1` [3h, N-(2-Fluorophenyl)-4-oxo-4H-chromene-2-carboxamide]: the melting point turned out to be 225 °C. The same compound registered an inhibition at 50 µM in data set [1] of 42.4 ± 10.4%.
Regarding `CCN(CC)Cc1cc(NC(=O)c2cc(=O)c3ccccc3o2)ccc1O` [3′b], the “Biofilm Inhibition (%)” value in data set [1] (50 µM) is on record as 35.5 ± 5.8%.
`O=C(Nc1cc(=O)c2ccccc2o1)C1CCCCC1` [6x, N-(4-Oxo-4H-chromen-2-yl)cyclohexanecarboxamide]: the melting point worked out at 241 °C. Further, the inhibition at 50 µM in data set [1] worked out at 48.7 ± 5.3%.
Compound `O=C(Nc1cc(=O)c2ccccc2o1)c1ccc(Cl)cc1` [6f, 4-Chloro-N-(4-oxo-4H-chromen-2-yl) benzamide] came in with a melting point of 296 °C. Also, the inhibition at 50 µM in data set [1] was 66.6 ± 2.1%.
The like results for `CCCc1ccc(C(=O)Nc2cc(=O)c3ccccc3o2)cc1` [6d, N-(4-Oxo-4H-chromen-2-yl)-4-propylbenzamide] were, in that order, 229 °C and 69.9 ± 9.7%.
In turn, `O=C(Nc1cc(=O)c2ccccc2o1)c1ccc(F)cc1` [6e, 4-Fluoro-N-(4-oxo-4H-chromen-2-yl) benzamide] showed a melting point of 251 °C. In data set [1], this compound registered an inhibition at 50 µM of 65.3 ± 7.6%.
Compound `O=C(Nc1ccc(N2CCOCC2)cc1)c1cc(=O)c2ccccc2o1` [3u, N-(4-Morpholinophenyl)-4-oxo-4H-chromene-2-carboxamide] yielded a melting point of 288 °C. The same compound came in with an inhibition at 50 µM in data set [1] of 51.2 ± 11.7%.
With `O=C(Nc1cc(=O)c2ccccc2o1)c1ccccc1Cl` [6i, 2-Chloro-N-(4-oxo-4H-chromen-2-yl) benzamide], the melting point came to 228 °C. This compound also gave an inhibition at 50 µM in data set [1] of 59.3 ± 3.3%.
Take `O=C(Nc1ccc(F)cc1)c1cc(=O)c2ccccc2o1` [3e, N-(4-Fluorophenyl)-4-oxo-4H-chromene-2-carboxamide]: the melting point was 211 °C. In data set [1], this compound came in with an inhibition at 50 µM of 73.3 ± 11%.
Take `Cc1ccc(NC(=O)c2cc(=O)c3ccccc3o2)cc1` [3b, 4-Oxo-N-(p-tolyl)-4H-chromene-2-carboxamide]: at 50 µM the inhibition in data set [1] was 39.1 ± 5.4%.
In data set [1], `COc1ccc(NC(=O)c2cc(=O)c3ccccc3o2)cc1` [3p, N-(4-Methoxyphenyl)-4-oxo-4H-chromene-2-carboxamide] returned an inhibition at 50 µM of 47.5 ± 5.3%.
